Experimental data as given in US20210147455A1 (SHAANXI SYNTHETIC PHARMACEUTICAL CO., LTD., priority 2018, published 2021).
Read-outs that look alike come from different tables or passages of the source.

What was measured:
[1] = in vivo; settings: female, mouse, 1 mg/kg
[2] = Solubility study; settings: Solubility
[3] = Stability experiments under 25° C.±2° C. and 65% R.H±5% R.H; settings: 25° C./65% R.H
Source text: • 1. […] The results are shown in detail in the following table.

[4] = Hygroscopicity study (Chinese Pharmacopoeia 2015, 9103); assay type: physicochemical
Procedure: Test method: • 1. A dried glass weighing bottle with stopper (having an outer diameter of 50 mm and a height of 15 mm) was placed in a thermostatic drier (a saturated ammonium chloride solution was placed on the lower part of the thermostatic drier) at an appropriate temperature of 25° C.±1° C. on the day earlier before the test, and the weight (m1) of weighing bottle was precisely weighed. • 2. An appropriate amount of test sample was taken and spread in the weighing bottle, and the thickness of the test sample was controlled to about 1 mm, and the weight (m2) was precisely weighed. • 3. The weighing bottle was opened and was placed, together with the bottle cap, under the above mentioned constant temperature and humidity condition for 24 hours. • 4. The weighing bottle was capped and precisely weighed to obtain the weight (m3).
Description of hygroscopicity characterization and delimitation of hygroscopicity weight gain: Deliquescence: enough moisture is absorbed to form a liquid. […] Slightly hygroscopic: hygroscopic weight gain is less than 2% but not less than 0.2%. Not or hardly hygroscopic: hygroscopic weight gain is less than 0.2%.

[5] = Stability experiments under 40° C.±2° C. and 75% R.H±5% R.H (accelerated test); assay type: physicochemical; settings: 40° C./75% R.H
[6] = Urine sample
[7] = background statement; cited from earlier work
[8] = day 5, High temperature of 40° C.
[9] = day 10, High temperature of 40° C.

`CC[C@@H]([C@H](C)OP(=O)(O)O)n1ncn(-c2ccc(N3CCN(c4ccc(OC[C@@H]5CO[C@@](Cn6cncn6)(c6ccc(F)cc6F)C5)cc4)CC3)cc2)c1=O` [Example 1, Posaconazole Phosphate Monocholinate] showed a concentration at 0.25 h ([1]; plasma, iv) of 5560 ng/mL, a concentration at 0.5 h ([1]; plasma, iv) of 7040 ng/mL and a concentration at 1 h ([1]; plasma, iv) of 7630 ng/mL. It also gave a concentration at 2 h ([1]; plasma, iv) of 8270 ng/mL, a concentration at 4 h ([1]; plasma, iv) of 7520 ng/mL and a concentration at 8 h ([1]; plasma, iv) of 7780 ng/mL. The concentration at 24 h ([1]; plasma, iv) was 7920 ng/mL, the concentration at 24 h ([1]; urine, intravenous) was 0 ng/mL and the solubility ([2]; organic solvent or mixture, Methanol, in methanol) was 35 mg/mL. The solubility ([2]; water, in water) was 82 mg/mL, the “stability (conclusion in words)” value ([3]; up to month 24) was “higher than that of the compounds in Comparative examples 1˜11” and the Content ([3]; month 0) was 99.87%. The Description ([3]; month 0) was “White”, the Related substance ([3]; month 0) was 0.13% and the Content ([3]; month 3) was 99.87%. For the same compound, the Description ([3]; month 3) was “White”, the Related substance ([3]; month 3) was 0.13% and the Content ([3]; month 6) was 99.87%. The Description ([3]; month 6) was “White”, the Related substance ([3]; month 6) was 0.13% and the Content ([3]; month 9) was 99.85%. For the same compound, the Description ([3]; month 9) was “White”, the Related substance ([3]; month 9) was 0.15% and the Content ([3]; month 12) was 99.84%. The Description ([3]; month 12) was “White”, the Related substance ([3]; month 12) was 0.16% and the Content ([3]; month 24) was 99.80%. The Description ([3]; month 24) was “White”, the Related substance ([3]; month 24) was 0.20% and the Hygroscopic weight gain ([4]; 25° C.±1° C., saturated ammonium chloride solution, 24 hours) was 0.12%. For the same compound, the “Conclusion (hygroscopicity)” value ([4]; after 24 hours) was “No hygroscopicity”, the Content (day 0) was 99.87% and the Description (day 0) was “White”. The Related substance (day 0) was 0.13%, the Content (day 5, High humidity of 92.5%) was 99.86% and the Description (day 5, High humidity of 92.5%) was “White”. The Related substance (day 5, High humidity of 92.5%) was 0.14%, the Content [8] was 99.87% and the Description [8] was “White”. The Related substance [8] was 0.13%, the Content (day 5, Illumination of 4500LX) was 99.87% and the Description (day 5, Illumination of 4500LX) was “White”. The Related substance (day 5, Illumination of 4500LX) was 0.13%, the Content (day 10, High humidity of 92.5%) was 99.86% and the Description (day 10, High humidity of 92.5%) was “White”. For the same compound, the Related substance (day 10, High humidity of 92.5%) was 0.14%, the Content [9] was 99.85% and the Description [9] was “White”. The Related substance [9] was 0.15%, the Content (day 10, Illumination of 4500LX) was 99.86% and the Description (day 10, Illumination of 4500LX) was “White”. The Related substance (day 10, Illumination of 4500LX) was 0.14%, the Content ([5]; month 0) was 99.87% and the Description ([5]; month 0) was “White”. For the same compound, the Related substance ([5]; month 0) was 0.13%, the Content ([5]; month 1) was 99.87% and the Description ([5]; month 1) was “White”. The Related substance ([5]; month 1) was 0.13%, the Content ([5]; month 2) was 99.86% and the Description ([5]; month 2) was “White”. The Related substance ([5]; month 2) was 0.14%, the Content ([5]; month 3) was 99.85% and the Description ([5]; month 3) was “White”. For the same compound, the Related substance ([5]; month 3) was 0.15%, the Content ([5]; month 6) was 99.84% and the Description ([5]; month 6) was “White”. The Related substance ([5]; month 6) was 0.16%, the “Concentration of the compound in Example 1” value (“Concentration of the compound” for short) ([6]; 0~2 h, 1 mg/kg intravenous) was 149.1 ng/mL and the “Concentration of the compound” value ([6]; 2~4 h) was 641.6 ng/mL. The “Concentration of the compound” value ([6]; 4~8 h) was 973.0 ng/mL, the “Concentration of the compound” value ([6]; 8~12 h) was 716.5 ng/mL and the “Concentration of the compound” value ([6]; 12~24 h) was 400.9 ng/mL.

For sulfobutyl ether-β-cyclodextrin, the preclinical toxicology finding [7] is given as “causes vacuolization of the urothelial cells and activation of the macrophages in the liver and lung”.
